System: phagosomes of RAW264.7 macrophage cells
Assay: Effect of V-ATPase inhibition on phagosome acidification and proteolysis, monitored in single phagosomes with Janus pH-proteolysis reporter particles
Assay type: cell-based
Conditions: for duration of proteolysis: onset of proteolysis to start of Rhodamine 110 intensity decrease, without ConA 24±10
Protocol: Dual color imaging started 5 minutes after Janus particle probes were added to cells and lasted for approximately 45 minutes. After particle internalization, the fluorescence intensity of the pH reporter increased first, followed by a similar intensity increase of the proteolysis reporter, indicating the progress of maturation (FIG. 6A). It was noted that some […] slowly diffused into the cell cytoplasm by the end of imaging, causing a slightly elevated fluorescence in the cell. This is expected because small dye molecules can passively diffuse across the phagosome membrane.
ConcanamycinA (ConA), a V-ATPase inhibitor, was added to disrupt acidification of phagosomes and its effect on proteolytic activities was monitored. […] The fluorescence decrease was caused by the continuous diffusion of Rhodamine 110, already in the phagosome lumen prior to the ConA addition, into the cell cytoplasm. After ConA addition, Rhodamine 110 lost by diffusion was not replaced by the generation of more.
To quantify the effect of ConA on proteolysis, duration of proteolysis was measured. In cells without ConA treatment, this was measured as the time from the onset of proteolysis (tproteolysis) to the start of the intensity plateau. In cells treated with ConA, this was measured as the time from the onset of proteolysis (tproteolysis) to the time when the Rhodamine 110 intensity started to decrease (FIG. 7C). Phagosome proteolysis in cells without ConA treatment lasted for 24±10 minutes on average (FIG. 7C). However, the duration of proteolysis was shorted to 16±5 minutes in the presence of 100 nM ConA and 10±4 minutes with 500 nM ConA.
In all phagosomes examined (N=21), proteolysis stopped within a short time after termination of acidification. […] This is consistent with the observation noted above that proteolysis started when the phagosome acidified to a threshold pH of 5.8±0.7. […] With the Janus reporter particle, it was identified that an acidic lumen is a prerequisite for the start of proteolytic activities in phagosomes, and their temporal relationship inside single phagosomes was quantitatively determined; data impossible to obtain by prior methods. Thus the bifunctional Janus pH-proteolysis reporter particle was able to detect both a disruption in phagosome acidification and a disruption in proteolytic activity inside a single phagosome caused by the presence of the V-ATPase inhibitor ConA.
Carboxylate polystyrene particles (500 nm) were purchased from Polysciences (Warrington, PA, USA). CF™ 640R NHS ester (succinimidyl ester), fluorescent peptide Rhodamine 110, bis-(N-CBZ-L-phenylalanyl-L-arginine amide) dihydrochloride (Z-FR-R110) were purchased from Biotium (Fremont, CA, USA). Amine-functionalized polystyrene particle (3 μm), carboxylated fluorophores (500 nm, ex/em 580/605), Alexa Fluor 568 NHS ester (succinimidyl ester), Alexa Fluor 647 NHS ester (succinimidyl ester), pHrodo™ iFL Red STP Ester, EZ-Link™ NHS-Biotin, sulfo-NHS (N-succinimidyl ester), streptavidin, and lipopolysaccharides from Escherichia coli (LPS) were purchased from ThermoFisher Scientific (Waltham, MA, USA). Bovine serum albumin (BSA), trypsin, nigericin sodium salt, and immunoglobulin G (IgG) from rabbit plasma were purchased from MilliporeSigma (St. Louis, MO, USA). 1-(3-Dimethylaminopropyl)-3-ethylcarbodiimide hydrochloride (EDC) was purchased from Alfa Aesar (Haverhill, MA, USA). Biotin pentylamine was purchased from Soltec BioScience (Beveraly MA). Concanamycin A was purchased from Santa Cruz Biotechnology (Dallas, TX, USA). Raw 264.7 macrophage cells were purchased from ATCC (Manassas, VA, USA). Ringer's solution (pH=7.2, 10 mM HEPES, 10 mM glucose, 155 mM NaCl, 2 mM NaH2PO4, 5 mM KCl, 2 mM CaCl2, 1 mM MgCl2) was used for live-cell imaging. Potassium-rich solution (135 mM KCl, 2 mM […], 1.2 mM CaCl2, 0.8 mM MgSO4) was used for intracellular pH calibration. […]

C/C=C/[C@H]1O[C@@](O)([C@@H](C)[C@H](O)[C@H](C)[C@H]2OC(=O)/C(OC)=C/C(C)=C/[C@@H](C)[C@@H](O)[C@@H](CC)[C@@H](O)[C@H](C)C/C(C)=C/C=C/[C@@H]2OC)C[C@@H](O[C@H]2C[C@@H](O)[C@H](OC(N)=O)[C@@H](C)O2)[C@@H]1C [ConA, Concanamycin A]
phagosome acidification and proteolytic activity (100 nM ConA added to cells before the onset of acidification): failed to acidify or exhibit proteolytic activities
duration of proteolysis (100 nM ConA, N=11): 16 ± 5 min
duration of proteolysis (500 nM ConA, N=10): 10 ± 4 min
phagosome proteolysis (Rhodamine 110 fluorescence) (ConA added after acidification had started, within minutes after acidification stopped): phagosome proteolysis also stopped
phagosome acidification (ConA added to cells after acidification had started, lumen pH started to increase): stopped acidifying
average pH of single phagosomes at the termination point of proteolysis (ConA-treated cells, N=21 phagosomes): 5.1±0.4

From patent US20240385187A1, “BI-[…] REPORTER PARTICLE AND METHODS FOR MAKING AND USING THE SAME” (The Trustees of Indiana University, priority 2021, published 2024)
